Assay results published in ChEMBL document CHEMBL1122857, “A uniquely potent renin inhibitor and its unanticipated plasma binding component” (J Med Chem, 1985).
Non-standard residues stand in square brackets, D forms with d. Residues, ends and D or L forms follow the SMILES beside them. *: point of attachment. Sta = CC(C)C[C@H](N)[C@@H](O)CC(=O)O; X1 = c1ccc(CN2CCC(N*)CC2)cc1; Boc = CC(C)(C)OC(=O)*

Assays:
Renin (Sus scrofa) = assay: Compound was tested for inhibition of hog kidney renin; settings: read-out: I50
Renin [1] = target: T1, Renin (Homo sapiens, UniProt P00797); assay: Compound was tested for inhibition of human kidney renin
T1 sequence (P00797 whole entry): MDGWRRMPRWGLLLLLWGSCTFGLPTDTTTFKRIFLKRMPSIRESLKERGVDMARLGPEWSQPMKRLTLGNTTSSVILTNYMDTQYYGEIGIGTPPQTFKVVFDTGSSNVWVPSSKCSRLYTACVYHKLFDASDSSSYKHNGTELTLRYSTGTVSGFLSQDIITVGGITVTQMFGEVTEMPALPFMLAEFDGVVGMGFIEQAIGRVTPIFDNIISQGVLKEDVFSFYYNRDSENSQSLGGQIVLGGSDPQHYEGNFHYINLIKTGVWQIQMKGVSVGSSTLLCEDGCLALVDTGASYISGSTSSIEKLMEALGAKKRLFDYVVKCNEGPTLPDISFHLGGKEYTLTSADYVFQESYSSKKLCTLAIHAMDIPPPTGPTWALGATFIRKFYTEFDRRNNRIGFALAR

Renin [2] = target: T1, Renin; assay: (§1) Compound was tested for inhibition of human plasma renin; format: cell-free; settings: read-out: I50
Renin (Homo sapiens) = target: T2, Renin (Homo sapiens) (UniProt P00797); assay: as §1; format: cell-free; settings: concentration not given here
T2 sequence (whole entry): T1 sequence (P00797 whole entry)

| SMILES | IC50 (Renin (Sus scrofa)) | Ki (Renin [1]) | IC50 (Renin [2]) | inhibition (Renin (Homo sapiens)) |
| --- | --- | --- | --- | --- |
| CC(C)C[C@H](NC(=O)C[C@H](O)[C@H](CC(C)C)NC(=O)[C@H](Cc1ccccc1)NC(=O)[C@H](Cc1ccccc1)NC(=O)OC(C)(C)C)C(=O)N[C@@H](Cc1ccccc1)C(N)=O (Boc-FF[Sta]LF-NH2) | 88 nM | 4.8 nM |  |  |
| CC(C)C[C@@H](CNCc1ccccc1)NC(=O)C[C@H](O)[C@H](CC(C)C)NC(=O)[C@H](Cc1ccccc1)NC(=O)[C@H](Cc1ccccc1)NC(=O)OC(C)(C)C | 858 nM | 0.026 nM | 1000 nM | 37% |
| CC(C)C[C@H](NC(=O)C[C@H](O)[C@H](CC(C)C)NC(=O)[C@H](Cc1c[nH]cn1)NC(=O)[C@H](Cc1ccccc1)NC(=O)OC(C)(C)C)C(=O)NC1CCN(Cc2ccccc2)CC1 (Boc-FH[Sta]L-X1) | 269 nM | 0.064 nM | 25 nM |  |
